Experiments:
rat pancreatic lipase = biological target: T1, rat pancreatic lipase (Rattus norvegicus, UniProt P27657); experiment: Inhibition of rat pancreatic lipase activity in vitro; format: biochemical; settings: 14C-triolein emulsion, pH 8.6, 20 min. at 37° C
T1 sequence (P27657 17-465): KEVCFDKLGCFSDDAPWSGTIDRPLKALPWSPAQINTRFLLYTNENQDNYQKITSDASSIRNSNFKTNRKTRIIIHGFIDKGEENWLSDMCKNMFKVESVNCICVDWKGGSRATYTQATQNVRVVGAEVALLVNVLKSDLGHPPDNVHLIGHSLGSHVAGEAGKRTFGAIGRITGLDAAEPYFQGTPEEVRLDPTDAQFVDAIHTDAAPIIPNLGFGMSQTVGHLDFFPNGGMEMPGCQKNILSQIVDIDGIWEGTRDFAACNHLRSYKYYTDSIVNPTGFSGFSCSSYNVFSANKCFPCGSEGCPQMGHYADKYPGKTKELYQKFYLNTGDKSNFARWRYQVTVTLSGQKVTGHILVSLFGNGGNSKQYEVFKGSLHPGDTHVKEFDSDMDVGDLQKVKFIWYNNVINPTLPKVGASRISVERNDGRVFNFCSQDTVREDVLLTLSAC
Experimental: Dietary long-chain triglycerides must be hydrolyzed by pancreatic lipase in the duodenum before absorption can occur. […] The capacity of compounds of formula I to inhibit rat pancreatic lipase in vitro is seen by the action of the following compounds:
The ability of compounds to inhibit rat pancreatic lipase is determined by analyzing the nmoles of free fatty acid [oleic acid] released from [^14 C]-triolein. Compounds of A and B are added to an emulsion consisting of: 200,000 dmp ^14 C-triolein, 7.5 mg triolein, 0.75 mg sodium taurocholate, 15 mg bovine serum albumin and 0.9 ml 0.2 M tris-HCl - 0.15 M NaCl, pH 8.6, per assay. Water and/or pancreatic lipase is added to make an assay volume of 1.0 ml. The emulsion is incubated for 20 min. at 37° C in a shaking water bath. The reaction is stopped by the addition of isopropanol; H2 SO4 (40:1). The lipids are extracted twice with 3 ml volumes of hexane. The liberated fatty acids are extracted with 2 ml of 0.1 N aqueous KOH in 50% methanol. A 1 ml aliquot of the KOH layer is paced in a scintillation vial with 10 ml of 2,5-bis-2-(5-tertiarybutyl benzoxazolyl)thiophene. The radioactivity is determined by a scintillation counter. Data are expressed as nmoles free fatty acid [oleic acid] releated.

[1] = 4-14C-cholesterol appearance in thoracic duct lymph of rats after oral administration; format: in vivo, female albino rats (Charles River); settings: 100 mg orally, female albino rats, vs Na-TC control
Experimental: The lowering of the cholesterol levels in mammals by the administration of the compound of formula I-B can be seen from the fact that when 100 mg of 7-(3alpha, 12alpha-dihydroxy-5beta-pregnane-20-yl)-3,5-heptadienoic acid was administered orally to female albino rats, the cholesterol level in the lymph was decreased after administration by 60% over the first 8 hours and 91% over the next 9 to 24 hr. period after administration as compared to the control. In this procedure, female albino rats (Charles River), weighing 300 ± 10 g were kept on a Purina chow diet ad libitum until the time of operation. […] This preparation enabled the production of lymph at a constant rate, the infusion of a bile salt, and the simultaneous collection of bile. All animals received, after operation, a continuous duodenal infusion of sodium taurocholate (Na-TC) in 0.85% NaCl. One day after operation, the rats were given, by stomach intubation, an emulsion containing about 4% triolein, 20 μC of 4-^14 C-cholesterol (Specific Activity 61.7 mC/mM, 159 μ C/mg), 2 mg of cholesterol, in addition to protein, carbohydrate, and saline. Both the Na-TC and the cholesterol carrier employed gave a single spot on either thin layer or glass fiber chromatograph so no further purification was attempted. […] An aliquot of the lipid extract was placed on a small piece of glass fiber paper and counted. […]

Row | SMILES | Ki (rat pancreatic lipase) | decrease of cholesterol level in the lymph as compared to the control ([1]; 9 to 24 hr. period after administration) | decrease of cholesterol level in the lymph as compared to the control ([1]; over the first 8 hours after administration)
1 | C[C@H](C/C=C/C=C/CC(=O)O)[C@H]1CC[C@H]2[C@@H]3CC[C@@H]4C[C@H](O)CC[C@]4(C)[C@H]3C[C@H](O)[C@]12C [Compound A, 7(3α,12α-dihydroxy-5β-pregnane-20-yl)-3,5-heptadienoic acid] | 1 mM | 91% | 60%
2 | CC(CCCCC(=O)O)[C@H]1CC[C@H]2[C@@H]3CC[C@@H]4C[C@H](O)CC[C@]4(C)[C@H]3C[C@H](O)[C@]12C (stereo partly drawn) [Compound B, 5-(3α,12α-dihydroxy-5βpregnane-20-yl)pentanoic acid] | 9 mM | – | –
